Results as given in patent publication US20250092093A1, “Androgen receptor protein degradation-inducing peptides for prostate cancer treatment” (priority 2023, published 2025).
Where a chain is given by its changes, count along the chain named. Ends that are not written are not given here. * marks the point of attachment. Myristoyl = CCCCCCCCCCCCCC(=O)*

Tests used:
AR protein [1] = molecular target: T1, AR protein (Homo sapiens, UniProt P10275); conditions: reported in the literature [3]; cited from earlier work
T1 sequence (P10275 1-920): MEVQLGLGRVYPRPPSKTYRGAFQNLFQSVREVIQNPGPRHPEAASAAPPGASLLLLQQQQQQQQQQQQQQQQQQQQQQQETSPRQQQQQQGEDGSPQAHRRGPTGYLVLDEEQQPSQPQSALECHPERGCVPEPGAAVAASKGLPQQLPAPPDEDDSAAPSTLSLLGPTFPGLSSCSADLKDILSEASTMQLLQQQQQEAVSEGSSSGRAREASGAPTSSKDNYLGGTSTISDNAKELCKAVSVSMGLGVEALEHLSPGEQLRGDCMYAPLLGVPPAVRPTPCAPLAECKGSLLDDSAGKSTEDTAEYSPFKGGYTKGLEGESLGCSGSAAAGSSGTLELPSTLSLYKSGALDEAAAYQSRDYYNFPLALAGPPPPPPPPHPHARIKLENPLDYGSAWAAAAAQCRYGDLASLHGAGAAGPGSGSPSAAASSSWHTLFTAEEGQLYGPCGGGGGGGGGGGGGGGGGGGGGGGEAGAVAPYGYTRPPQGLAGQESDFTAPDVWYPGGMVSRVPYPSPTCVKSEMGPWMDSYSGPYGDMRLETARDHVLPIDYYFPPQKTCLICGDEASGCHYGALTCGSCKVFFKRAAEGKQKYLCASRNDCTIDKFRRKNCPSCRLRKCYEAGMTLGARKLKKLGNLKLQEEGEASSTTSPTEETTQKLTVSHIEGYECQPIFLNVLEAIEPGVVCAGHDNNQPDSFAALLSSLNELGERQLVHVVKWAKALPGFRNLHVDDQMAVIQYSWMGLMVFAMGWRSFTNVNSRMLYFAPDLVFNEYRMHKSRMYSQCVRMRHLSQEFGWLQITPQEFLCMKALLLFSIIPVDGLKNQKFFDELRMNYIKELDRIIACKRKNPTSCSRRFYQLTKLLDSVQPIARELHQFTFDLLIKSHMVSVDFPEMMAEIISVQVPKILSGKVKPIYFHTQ

AR protein [2] = molecular target: T2, AR protein (Homo sapiens, UniProt P10275, T878A); assay: AR protein level by western blot in C4-2B cells; format: cell-based; conditions: 10 micro-M
T2 construct: C4-2B cells were treated with peptides (10 micro-M) for 24 h as indicated, and AR protein levels were assessed by western blots; endogenous in cells; host or cells: C4-2B
T2 sequence (P10275 1-920 T878A): T1 sequence (P10275 1-920) with T878A
Method: (§1) A. C4-2B cells were treated with peptides (10 micro-M) for 24 h as indicated, and AR protein levels were assessed by western blots. B. C4-2B cells were treated with peptides and harvested for western blot assay with an anti-PARP antibody. Actin blot served as a protein loading control. C. Flow cytometry analysis of subG1/GO cell cycle population in C4-2B cells after peptide treatment (10 micro-M) in 2% charcoal-stripped FBS for 24 h. Data represents two experiments. The asterisk indicates a significant difference compared to the DSMO control (p<0.05, Student t-test).
A. Peptide analogs were synthesized as listed in the top panel. The myristylation sequence was conjugated to the N-terminal of the peptide for penetrating the plasma membrane. B. Prostate cancer C4-2B cells were treated with the agents at a concentration of 10 micro-M for 48 h. Cells were harvested for western blot assay with AR antibody (clone PG21). The Actin blot served as a protein loading control. […]
We further characterized the ARi14 peptide for its core sequence of action. The ARi14 peptide was chopped into two fragments, the 7-mer ARi7 peptide (EAAAYQS) and 8-mer ARi8 peptide ([…]), and their AR degradation inducing ability was compared to the original 14-mer peptide (FIG. 3). These peptides were synthesized with an N-terminal myristylation signal to facilitate cellular uptake. […]

AR protein [3] = molecular target: T1, AR protein; assay: AR protein level by western blot in LAPC-4 cells; format: cell-based; conditions: 10 micro-M, 24 h, 2% charcoal-stripped FBS
Method: (§2) A. ARi14 peptide was fused with the KDM4A CPP sequence via a short link (KDM4A-ARi14). This fused peptide was labeled with FITC fluorescent dye. B. LAPC-4 cells were treated with the solvent, or the peptides as indicated at 10 micro-M in 2% charcoal-striped FBS-supplied media for 24 h. Cellular proteins were subjected to a western blot with an anti-AR antibody (clone PG21). Actin blot served as a protein loading control. C. Microscopic images were shown for cell viability. Note: white arrows indicate a cluster of dying cells loaded with fluorescent-labeled peptides.
(§3) To achieve a better intracellular distribution of the peptide, a cellular penetrating peptide (CPP) derived from the KDM4A protein was fused to the N-terminal of the ARil4 peptide via a short link sequence GGGS (FIG. 2A).

LAPC-4 cells = assay: Cell viability / cell death by microscopic images in LAPC-4 cells; format: cell-based; conditions: 10 micro-M, 24 h
Method: as §2, §3

C4-2B cells [4] = assay: Flow cytometry analysis of subG1/GO cell cycle population in C4-2B cells; format: cell-based; conditions: Enzalutamide-resistant C4-2B cells, 10 micro-M, 24 h, 2% charcoal-stripped FBS
Method: as §1
(§4) We further characterized the ARi14 peptide for its core sequence of action. The ARi14 peptide was chopped into two fragments, the 7-mer ARi7 peptide (EAAAYQS) and 8-mer ARi8 peptide ([…]), and their AR degradation inducing ability was compared to the original 14-mer peptide (FIG. 3). These peptides were synthesized with an N-terminal myristylation signal to facilitate cellular uptake.

C4-2B cells [5] = assay: Apoptotic cell death by PARP cleavage western blot in C4-2B cells; format: cell-based; conditions: N-terminal myristylated peptides
Method: as §1, §4

[6] = N-terminal myristylated peptides, 24 h

COc1ccc(/C=C/C(=O)/C=C(O)/C=C/c2ccc(OC)c(OC)c2)cc1OC [ASC-J9]
AR protein degradation in prostate cancer cells (AR protein [1]): induced AR protein degradation

ARi10: new analog of ARi8, myristylation sequence at the N-terminal (Myristoyl-YQSRDYYNFP)
AR protein levels (AR protein [2]; myristylated peptides, 48 h): largely reduced

EAAAYQS [ARi7, 7-mer fragment of ARi14, synthesized with an N-terminal myristylation signal]
impact on the AR protein level (AR protein [2]; [6]): no impact

EAAAYQSRDYYNFP [ARi14, decoy peptide derived from the AR N-terminal domain, amino acids 355-368; myristylated form used in b32]
AR protein level (AR protein [3]): no apparent effect | cell death response / cell viability (LAPC-4 cells): no apparent effect | AR reduction (AR protein [2]; [6]): 78% | cell cycle arrest at the subG1/GO phase (C4-2B cells [4]): induced cell cycle arrest

SRDYYNFP [ARi8, 8-mer fragment of ARi14, synthesized with an N-terminal myristylation signal]
AR reduction (AR protein [2]; [6]): 92% | apoptotic cell death evidenced by PARP cleavage (C4-2B cells [5]): more profound apoptotic cell death than ARi14 | cell cycle arrest at the subG1/GO phase (C4-2B cells [4]): induced cell cycle arrest
